According to patent US8754242B2, “Herbicides” (Syngenta Crop Protection LLC, priority 2007, dated 2014):

Assays:
Format in all cases: in vivo
[1] = system: Alopecurus myosuroides (ALOMY); experiment: Test Example 1 pre-emergence herbicidal activity; settings: Alopecurus myosuroides, 480 h, rate 250 g/ha, evaluated 20 days later, read-out: Pre-emergence activity ALOMY (100=total damage to plant; 0=no damage to plant)
Summary of the method: (§1)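 Plants sown in standard soil in pots; sprayed 1 day after sowing (pre-emergence) or after 10 days' glasshouse cultivation (post-emergence) with aqueous spray of compound formulated in acetone plus Emulsogen EL/N-methylpyrrolidone/dipropylene glycol monomethyl ether/X-77 solution. Damage scored 0–100 (100 = total damage) after 20 days (pre) or 15 days (post).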

Avena fatua (AVEFA) [2] = experiment: Test Example 1 pre-emergence herbicidal activity; settings: Avena fatua, 480 h, rate 250 g/ha, evaluated 20 days later, read-out: Pre-emergence activity AVEFA (100=total damage to plant; 0=no damage to plant)
Summary of the method: as §1

[3] = system: Digitaria sanguinalis (DIGSA); experiment: Test Example 1 pre-emergence herbicidal activity; settings: Digitaria sanguinalis, 480 h, rate 250 g/ha, evaluated 20 days later, read-out: Pre-emergence activity DIGSA (100=total damage to plant; 0=no damage to plant)
Summary of the method: as §1

[4] = system: Echinochloa crus-galli (ECHCG); experiment: Test Example 1 pre-emergence herbicidal activity; settings: Echinochloa crus-galli, 480 h, rate 250 g/ha, evaluated 20 days later, read-out: Pre-emergence activity ECHCG (100=total damage to plant; 0=no damage to plant)
Summary of the method: as §1

Lolium perenne (LOLPE) [5] = experiment: Test Example 1 pre-emergence herbicidal activity; settings: Lolium perenne, 480 h, rate 250 g/ha, evaluated 20 days later, read-out: Pre-emergence activity LOLPE (100=total damage to plant; 0=no damage to plant)
Summary of the method: as §1

Setaria faberi (SETFA) [6] = experiment: Test Example 1 pre-emergence herbicidal activity; settings: Setaria faberi, 480 h, rate 250 g/ha, evaluated 20 days later, read-out: Pre-emergence activity SETFA (100=total damage to plant; 0=no damage to plant)
Summary of the method: as §1

[7] = system: Alopecurus myosuroides (ALOMY); experiment: Test Example 1 post-emergence herbicidal activity; settings: 360 h, rate 125 g/ha, evaluated 15 days later, read-out: Post-emergence activity ALOMY (100=total damage to plant; 0=no damage to plant)
Summary of the method: as §1

Avena fatua (AVEFA) [8] = experiment: Test Example 1 post-emergence herbicidal activity; settings: 360 h, rate 125 g/ha, evaluated 15 days later, read-out: Post-emergence activity AVEFA (100=total damage to plant; 0=no damage to plant)
Summary of the method: as §1

[9] = system: Digitaria sanguinalis (DIGSA); experiment: Test Example 1 post-emergence herbicidal activity; settings: 360 h, rate 125 g/ha, evaluated 15 days later, read-out: Post-emergence activity DIGSA (100=total damage to plant; 0=no damage to plant)
Summary of the method: as §1

[10] = system: Echinochloa crus-galli (ECHCG); experiment: Test Example 1 post-emergence herbicidal activity; settings: 360 h, rate 125 g/ha, evaluated 15 days later, read-out: Post-emergence activity ECHCG (100=total damage to plant; 0=no damage to plant)
Summary of the method: as §1

Lolium perenne (LOLPE) [11] = experiment: Test Example 1 post-emergence herbicidal activity; settings: 360 h, rate 125 g/ha, evaluated 15 days later, read-out: Post-emergence activity LOLPE (100=total damage to plant; 0=no damage to plant)
Summary of the method: as §1

Setaria faberi (SETFA) [12] = experiment: Test Example 1 post-emergence herbicidal activity; settings: 360 h, rate 125 g/ha, evaluated 15 days later, read-out: Post-emergence activity SETFA (100=total damage to plant; 0=no damage to plant)
Summary of the method: as §1

Structure (SMILES)	pest or weed control at 250 g/ha [1]	pest or weed control at 250 g/ha (Avena fatua (AVEFA) [2])	pest or weed control at 250 g/ha [3]	pest or weed control at 250 g/ha [4]	pest or weed control at 250 g/ha (Lolium perenne (LOLPE) [5])	pest or weed control at 250 g/ha (Setaria faberi (SETFA) [6])	pest or weed control at 125 g/ha [7]	pest or weed control at 125 g/ha (Avena fatua (AVEFA) [8])	pest or weed control at 125 g/ha [9]	pest or weed control at 125 g/ha [10]	pest or weed control at 125 g/ha (Lolium perenne (LOLPE) [11])	pest or weed control at 125 g/ha (Setaria faberi (SETFA) [12])
COc1ccc([C@@H]2C[C@@H]3O[C@H]2[C@H]2C(O)=C(c4c(C)cc(C)cc4C)C(=O)[C@H]23)cc1 (racemic) [Example T57]	50%	30%	60%	70%	100%	80%	70%	70%	70%	80%	40%	70%
CCc1cc(C)cc(CC)c1C1=C(O)[C@@H]2[C@@H]3O[C@@H](C[C@H]3c3ccc(C)c(Cl)c3)[C@@H]2C1=O [Example T151]	50%	20%	80%	40%	60%	20%	80%	80%	70%	80%	30%	10%
C#CC1=C[C@@H]2O[C@H]1[C@H]1C(O)=C(c3c(CC)cc(C)cc3CC)C(=O)[C@H]12 [Example T12]	10%	10%	40%	0%	40%	40%	70%	50%	70%	70%	10%	70%
CC#CCOC(=O)OC1=C(c2c(CC)cc(C)cc2CC)C(=O)[C@@H]2[C@H]1[C@H]1CC[C@@H]2O1 (racemic) [Example P15]	80%	90%	100%	100%	90%	100%	100%	90%	80%	100%	90%	80%
Cc1cc(C)c(C2=C(O)[C@@H]3[C@@H]4O[C@@H](C[C@H]4c4cccc(C(F)(F)F)c4)[C@@H]3C2=O)c(C)c1 [Example T85]	40%	60%	60%	70%	70%	70%	90%	20%	20%	100%	70%	70%
CCc1cc(C)cc(CC)c1C1=C(O)[C@H]2[C@@H](C1=O)[C@@H]1C=C(C#C[Si](C)(C)C)[C@H]2O1 (racemic) [Example T11]	30%	40%	0%	30%	60%	20%	40%	20%	80%	70%	30%	70%
CSc1ccc([C@@H]2C[C@@H]3O[C@H]2[C@H]2C(O)=C(c4c(C)cc(C)cc4C)C(=O)[C@H]23)cc1 [Example T66]	30%	60%	90%	70%	40%	100%	80%	80%	90%	80%	50%	80%
